Experimental data from ChEMBL document CHEMBL1201862, “PubChem BioAssay data set” (2004).
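Growth conditions: 96-well plates. Treatment: test compound, 48 hours, 5 concentrations. Analysis: linear interpolation between bracketing concentrations; unreached endpoints set to highest concentration. GI50 marks 50% less growth.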 The source made the active and inactive calls. Rule as the data show it: active = GI50 up to about 1.1 µM and inactive = higher.

Assays:
Experiment in all cases: NCI anticancer screen, dose series, 48 h
CAKI-1 = test system: CAKI-1
HOP-92 = test system: HOP-92
NCI-H522 = test system: NCI-H522
EKVX = test system: EKVX
SK-OV-3 = test system: SK-OV-3
CCRF-CEM = test system: CCRF-CEM
A498 = test system: A498
786-0 = test system: 786-0
A549 = test system: A549
HCT-15 = test system: HCT-15
SF-539 = test system: SF-539
NCI-H226 = test system: NCI-H226
SW-620 = test system: SW-620
KM12 = test system: KM12
ACHN = test system: ACHN
SNB-19 = test system: SNB-19

Compound	GI50 (CAKI-1)	GI50 (HOP-92)	GI50 (NCI-H522)	GI50 (EKVX)	GI50 (SK-OV-3)	GI50 (CCRF-CEM)	GI50 (A498)	GI50 (786-0)	GI50 (A549)	GI50 (HCT-15)	GI50 (SF-539)	GI50 (NCI-H226)	GI50 (SW-620)	GI50 (KM12)	GI50 (ACHN)	GI50 (SNB-19)
COC12OCCN(C)C1=CC(=O)C1=NNC(C)C12 (configuration not stated)	> 100 µM (inactive)	> 100 µM (inactive)	> 100 µM (inactive)	> 100 µM (inactive)	> 100 µM (inactive)	> 100 µM (inactive)	> 100 µM (inactive)	> 100 µM (inactive)	> 100 µM (inactive)	> 100 µM	> 100 µM (inactive)	> 100 µM (inactive)	> 100 µM (inactive)	> 100 µM (inactive)	–	–
CCc1ccc(Cc2ccc(CC)c(NC(=O)C(=O)Cc3nc4ccccc4nc3C)c2CC)c(CC)c1NC(=O)C(=O)Cc1nc2ccccc2nc1C	25.4 µM (inactive)	4.02 µM (inactive)	26.4 µM (inactive)	45.9 µM (inactive)	> 100 µM (inactive)	42.7 µM (inactive)	> 100 µM (inactive)	> 100 µM (inactive)	> 100 µM (inactive)	> 100 µM	36.8 µM (inactive)	–	> 100 µM (inactive)	> 100 µM (inactive)	61.2 µM (inactive)	45.1 µM (inactive)
Cc1cc(C)nc(NS(=O)(=O)c2ccc(Nc3c4ccccc4nc4c(C(=O)Nc5ccc(S(=O)(=O)Nc6cc(C)on6)cc5)ccc(Cl)c34)cc2)n1	–	–	21.5 µM (inactive)	25.5 µM (inactive)	69.7 µM (inactive)	21.8 µM (inactive)	17.2 µM (inactive)	17.9 µM (inactive)	–	28.9 µM	21.5 µM (inactive)	–	–	17.3 µM (inactive)	36.2 µM (inactive)	22.4 µM (inactive)
O=C1CCC(c2nc3ccccc3o2)C(=O)N1 (configuration not stated)	> 100 µM (inactive)	> 100 µM (inactive)	> 100 µM (inactive)	> 100 µM (inactive)	> 100 µM (inactive)	> 100 µM (inactive)	> 100 µM (inactive)	> 100 µM (inactive)	> 100 µM (inactive)	> 100 µM	> 100 µM (inactive)	> 100 µM (inactive)	> 100 µM (inactive)	> 100 µM (inactive)	> 100 µM (inactive)	> 100 µM (inactive)
COc1ccc(Nc2nc3cc(C(F)(F)F)ccc3nc2-c2ccccc2)cc1OC	31.5 µM (inactive)	1.16 µM (inactive)	30 µM (inactive)	17.3 µM (inactive)	15.9 µM (inactive)	82.6 µM (inactive)	52.1 µM (inactive)	41.8 µM (inactive)	25.9 µM (inactive)	64.4 µM	39.5 µM (inactive)	15.8 µM (inactive)	35.5 µM (inactive)	> 100 µM (inactive)	30.6 µM (inactive)	–
CCCCCCCCCCCc1cc(=O)c2c(O)cccc2o1	> 100 µM (inactive)	> 100 µM (inactive)	71.1 µM (inactive)	56.1 µM (inactive)	> 100 µM (inactive)	20.3 µM (inactive)	–	> 100 µM (inactive)	61.8 µM (inactive)	54.8 µM	> 100 µM (inactive)	37.8 µM (inactive)	> 100 µM (inactive)	54.2 µM (inactive)	> 100 µM (inactive)	> 100 µM (inactive)
O=C(Nc1cc(Cl)c(Cl)cc1Cl)C(=O)C(C(=O)c1ccccc1)C1OC(=O)c2ccccc21 (configuration not stated)	> 100 µM (inactive)	> 100 µM (inactive)	> 100 µM (inactive)	> 100 µM (inactive)	> 100 µM (inactive)	> 100 µM (inactive)	> 100 µM (inactive)	> 100 µM (inactive)	> 100 µM (inactive)	> 100 µM	–	> 100 µM (inactive)	> 100 µM (inactive)	> 100 µM (inactive)	> 100 µM (inactive)	> 100 µM (inactive)
Clc1ccc(C2SCc3nc4ccccc4n32)c(Cl)c1 (configuration not stated)	–	2.83 µM (inactive)	15.7 µM (inactive)	11.6 µM (inactive)	25.8 µM (inactive)	12.6 µM (inactive)	15 µM (inactive)	17.2 µM (inactive)	14.5 µM (inactive)	15.6 µM	17.5 µM (inactive)	14.8 µM (inactive)	9.16 µM (inactive)	14.7 µM (inactive)	15 µM (inactive)	18 µM (inactive)
CCOC1=C2N=C(Cc3ccccc3F)N=C2C(=O)c2ccccc21	> 100 µM (inactive)	> 100 µM (inactive)	> 100 µM (inactive)	> 100 µM (inactive)	–	> 100 µM (inactive)	–	> 100 µM (inactive)	> 100 µM (inactive)	> 100 µM	> 100 µM (inactive)	> 100 µM (inactive)	> 100 µM (inactive)	> 100 µM (inactive)	> 100 µM (inactive)	> 100 µM (inactive)
CC(=O)OC1CC2C(C)(C)C(=O)C=C[C@]2(C)C2CCC3(C)C(=CCC3[C@H](CO)C[C@H](O)C(=O)C(C)(C)O)[C@]12C (some centres not stated)	15.9 µM (inactive)	–	23.6 µM (inactive)	20.3 µM (inactive)	13.7 µM (inactive)	17.9 µM (inactive)	16.4 µM (inactive)	19.7 µM (inactive)	24.2 µM (inactive)	17.8 µM	18.7 µM (inactive)	20.6 µM (inactive)	21.1 µM (inactive)	19.1 µM (inactive)	17.3 µM (inactive)	31.7 µM (inactive)
NC(CCCNCc1ccccc1)C(=O)O (configuration not stated)	> 100 µM (inactive)	> 100 µM (inactive)	> 100 µM (inactive)	> 100 µM (inactive)	> 100 µM (inactive)	> 100 µM (inactive)	> 100 µM (inactive)	> 100 µM (inactive)	> 100 µM (inactive)	> 100 µM	> 100 µM (inactive)	> 100 µM (inactive)	> 100 µM (inactive)	> 100 µM (inactive)	> 100 µM (inactive)	> 100 µM (inactive)
CCCCCCCCCCn1cccc1/C=C/c1ccc(/C=C/c2cccn2CCCCCCCCCC)cc1	> 100 µM (inactive)	> 100 µM (inactive)	> 100 µM (inactive)	> 100 µM (inactive)	> 100 µM (inactive)	> 100 µM (inactive)	> 100 µM (inactive)	> 100 µM (inactive)	> 100 µM (inactive)	–	> 100 µM (inactive)	> 100 µM (inactive)	> 100 µM (inactive)	> 100 µM (inactive)	> 100 µM (inactive)	> 100 µM (inactive)
Cc1c2ccncc2c(C)c2c1[nH]c1ccc(OC(C)(C)C)cc12	1.81 µM (inactive)	9.82 µM (inactive)	2.44 µM (inactive)	11.1 µM (inactive)	4.42 µM (inactive)	2.07 µM (inactive)	12.2 µM (inactive)	1.53 µM (inactive)	3.15 µM (inactive)	–	1.57 µM (inactive)	3.17 µM (inactive)	2.14 µM (inactive)	–	–	2.47 µM (inactive)
COc1ccc(C=C(c2ccc(OCc3ccccc3)cc2)c2ccc(OCc3ccccc3)cc2)cc1	> 100 µM (inactive)	–	> 100 µM (inactive)	> 100 µM (inactive)	> 100 µM (inactive)	–	–	> 100 µM (inactive)	> 100 µM (inactive)	> 100 µM	> 100 µM (inactive)	> 100 µM (inactive)	> 100 µM (inactive)	> 100 µM (inactive)	> 100 µM (inactive)	> 100 µM (inactive)
N#CC1(N2CCCC2)CCC2(CC1)OCCO2	> 100 µM (inactive)	> 100 µM (inactive)	> 100 µM (inactive)	> 100 µM (inactive)	> 100 µM (inactive)	> 100 µM (inactive)	> 100 µM (inactive)	> 100 µM (inactive)	> 100 µM (inactive)	> 100 µM	> 100 µM (inactive)	> 100 µM (inactive)	> 100 µM (inactive)	> 100 µM (inactive)	> 100 µM (inactive)	> 100 µM (inactive)
O=C(O)c1cc(S(=O)(=O)N/N=C\c2c3ccccc3[n+]([O-])c3ccccc23)ccc1O	45.8 µM (inactive)	9.64 µM (inactive)	8.3 µM (inactive)	44.4 µM (inactive)	38.3 µM (inactive)	8.57 µM (inactive)	14.1 µM (inactive)	11.7 µM (inactive)	22.7 µM (inactive)	5.96 µM	–	26.7 µM (inactive)	11.3 µM (inactive)	23.8 µM (inactive)	18.6 µM (inactive)	31.6 µM (inactive)
O=C1c2ccccc2C(=O)C1C(c1ccc(F)cc1)C1C(=O)c2ccccc2C1=O	> 100 µM (inactive)	> 100 µM (inactive)	> 100 µM (inactive)	> 100 µM (inactive)	> 100 µM (inactive)	43 µM (inactive)	–	> 100 µM (inactive)	> 100 µM (inactive)	> 100 µM	> 100 µM (inactive)	> 100 µM (inactive)	> 100 µM (inactive)	> 100 µM (inactive)	> 100 µM (inactive)	> 100 µM (inactive)
CCOC(=O)C(Cc1ccccc1)NC(=O)c1nc[nH]c1/N=N/N(C)C (configuration not stated)	> 100 µM (inactive)	–	> 100 µM (inactive)	> 100 µM (inactive)	> 100 µM (inactive)	> 100 µM (inactive)	> 100 µM (inactive)	> 100 µM (inactive)	> 100 µM (inactive)	> 100 µM	> 100 µM (inactive)	> 100 µM (inactive)	> 100 µM (inactive)	> 100 µM (inactive)	> 100 µM (inactive)	> 100 µM (inactive)
N#CC1(CCCCl)CCCCC1	–	> 100 µM (inactive)	> 100 µM (inactive)	> 100 µM (inactive)	> 100 µM (inactive)	> 100 µM (inactive)	> 100 µM (inactive)	> 100 µM (inactive)	> 100 µM (inactive)	> 100 µM	> 100 µM (inactive)	–	> 100 µM (inactive)	> 100 µM (inactive)	> 100 µM (inactive)	> 100 µM (inactive)
